According to patent publication US20180200257A1, “METHODS FOR THE TREATMENT OF INFLAMMATORY DISORDERS” (Galapagos NV, priority 2015, published 2018):

Test system: subjects with moderately to severely active RA who have an inadequate response to methotrexate (MTX)
Assay: Study 1 (add-on to MTX) - DAS28(CRP) scores
Type: in vivo, human
Design: key to DAS28(CRP) mean CFB (LOCF): change from baseline in DAS28(CRP) score (joints, CRP, 0-100 VAS)
Experimental: Double-blind, placebo-controlled add on study in subjects with moderately to severely active RA who have an inadequate response to methotrexate (MTX) (oral or parenteral).
595 subjects randomized to one of 6 dose regimens of Compound 1 (dosed as [Compound 1:HCl:3H2O]) (3 dose levels administered either once or twice daily) or placebo on top of each subject's stable dose of MTX.
Compound 1 (dosed as [Compound 1:HCl:3H2O]) is dosed for twelve weeks once daily (q.d.) (50 mg, 100 mg or 200 mg) or twice daily (b.i.d.) (25 mg, 50 mg or 100 mg); or placebo.
At Week 12, the subjects on placebo who have not achieved 20% improvement in swollen joint count (SJC66) and tender joint count (TJC68) are re-randomized automatically to receive Compound 1 (dosed as a [Compound 1:HCl:3H2O]) either at 100 mg q.d. or 50 mg b.i.d. doses in a blinded fashion; subjects on 50 mg q.d. who have not achieved 20% improvement in SJC66 and TJC68 will be assigned to 100 mg q.d. and subjects on 25 mg b.i.d. that have not achieved a 20% improvement in SJC66 and TJC68 will be assigned to 50 mg b.i.d. Subjects who switch treatment at week 12 are handled as if they discontinued at week 12 for the purpose of statistical analysis, whereas subjects in the other groups will maintain their randomized treatment until Week 24.
The (DAS28(CRP)) is a system developed and validated by the European League Against Rheumatism (EULAR) to measure the progress and improvement of rheumatoid arthritis and has been extensively validated (Wells et al., 2008). The DAS28(CRP) scoring includes a 28 tender and swollen joint count, CRP measurement from blood analysis, and a general health assessment on a visual analog scale (Fransen et al., 2003).
DAS28(CRP) values range from 2.0 to 10.0, and more particularly reflect the following status: • Remission: DAS28(CRP) ≤2.6 • Low Disease activity: 2.6 <DAS28(CRP) ≤3.2 • Moderate Disease Activity: 3.2 <DAS28(CRP) ≤5.1 • High Disease Activity: DAS28(CRP) >5.1
In practice, the DAS28(CRP) measurement involves the evaluation 28 different joints including in the measurement (proximal interphalangeal joints (10 joints), metacarpophalangeal joints (10), wrists (2), elbows (2), shoulders (2), and knees (2)). When looking at these joints, both the number of joints with tenderness upon touching and swelling are counted.
Secondly, C-reactive protein level is measured.
Finally, the patient makes a subjective assessment of disease activity during the preceding 7 days on a scale between 0 and 100, where 0 is “no activity” and 100 is “highest activity possible”.
The DAS28(CRP) score is then calculated as follows:
Firstly, the patient is asked to make a vertical mark on a 100 mm Visual Analog Scale (VAS) corresponding to their general health or global disease activity on a touch screen to measure the VAS value, which is used in the formula below.
Secondly, a swollen and tender joint examination is then performed on the patient. The swollen and tender joints are recorded. From this examination are obtained the total amount of swollen joints (SJC) and the total amount of tender joints (TJC), which are used in the formula below.
Thirdly, C-reactive protein (CRP) levels are measured.
Finally, the values obtained above (VAS, TJC28, SJC28, and CRP) are computed into the following Formula to obtain the DAS28(CRP) score.
DAS28(CRP)=0.56*√{square root over (TJC28)}+0.28√{square root over (SJC28)}+[…] ln(CRP+1)+0.014*VAS
The improvement (decreases) in the DAS28(CRP) scores for each patient group at weeks 1, 2, 4, 8 and 12 is shown in Table LXXXVII and Table LXXXVIII below, together with the Hommel-corrected p-value for the pairwise comparisons of each group with placebo.
The number of subjects (N) provided in each groups corresponds to the number of subjects starting the study in each group, and the DAS28 (CRP) data reported below corresponds to the responding subjects continuing for the entire 24 weeks on their initial treatment course.

[1] = 2 × 25 mg b.i.d., 12 weeks results
[2] = 2 × 25 mg b.i.d., 24 weeks results
[3] = 2 × 50 mg b.i.d., 12 weeks results
[4] = 2 × 50 mg b.i.d., 24 weeks results
[5] = 2 × 100 mg b.i.d., 12 weeks results
[6] = 2 × 100 mg b.i.d., 24 weeks results

Compound: O=C(Nc1nc2cccc(-c3ccc(CN4CCS(=O)(=O)CC4)cc3)n2n1)C1CC1 [Compound 1, cyclopropanecarboxylic acid {5-[4-(1,1-dioxo-thiomorpholin-4-ylmethyl)-phenyl]-[1,2,4]triazolo[1,5-a]pyridin-2-yl}-amide]
- DAS28(CRP) mean CFB (LOCF) (2 × 25 mg b.i.d., week 2, 12 weeks results): −1.06
- DAS28(CRP) mean CFB (LOCF) (2 × 25 mg b.i.d., week 2, 24 weeks results): −1.06
- DAS28(CRP) mean CFB (LOCF) (2 × 25 mg b.i.d., week 4, 12 weeks results): −1.45
- DAS28(CRP) mean CFB (LOCF) (2 × 25 mg b.i.d., week 4, 24 weeks results): −1.45
- DAS28(CRP) mean CFB (LOCF) (2 × 25 mg b.i.d., week 8, 12 weeks results): −1.82
- DAS28(CRP) mean CFB (LOCF) (2 × 25 mg b.i.d., week 8, 24 weeks results): −1.82
- DAS28(CRP) mean CFB (LOCF) (2 × 25 mg b.i.d., week 12, 12 weeks results): −1.88
- DAS28(CRP) mean CFB (LOCF) (2 × 25 mg b.i.d., week 12, 24 weeks results): −1.88
- DAS28(CRP) mean CFB (LOCF) (2 × 25 mg b.i.d., week 16, 24 weeks results): −2.02
- DAS28(CRP) mean CFB (LOCF) (2 × 25 mg b.i.d., week 20, 24 weeks results): −2.07
- DAS28(CRP) mean CFB (LOCF) (2 × 25 mg b.i.d., week 24, 24 weeks results): −2.19
- % patients reaching low disease activity and/or remission at week 12 (LOCF) [1]: 28%
- % patients reaching low disease activity at week 12 (LOCF) [1]: 13%
- % patients reaching remission at week 12 (LOCF) [1]: 15%
- % patients reaching low disease activity and/or remission at week 24 (LOCF) [2]: 40%
- % patients reaching low disease activity at week 24 (LOCF) [2]: 16%
- % patients reaching remission at week 24 (LOCF) [2]: 23%
- DAS28(CRP) mean CFB (LOCF) (2 × 25 mg b.i.d., Week 1, 12 weeks results): −0.68
- DAS28(CRP) mean CFB (LOCF) (2 × 25 mg b.i.d., Week 1, 24 weeks results): −0.68
- DAS28(CRP) mean CFB (LOCF) (2 × 50 mg b.i.d., week 2, 12 weeks results): −1.22
- DAS28(CRP) mean CFB (LOCF) (2 × 50 mg b.i.d., week 2, 24 weeks results): −1.22
- DAS28(CRP) mean CFB (LOCF) (2 × 50 mg b.i.d., week 4, 12 weeks results): −1.65
- DAS28(CRP) mean CFB (LOCF) (2 × 50 mg b.i.d., week 4, 24 weeks results): −1.63
- DAS28(CRP) mean CFB (LOCF) (2 × 50 mg b.i.d., week 8, 12 weeks results): −1.93
- DAS28(CRP) mean CFB (LOCF) (2 × 50 mg b.i.d., week 8, 24 weeks results): −1.93
- DAS28(CRP) mean CFB (LOCF) (2 × 50 mg b.i.d., week 12, 12 weeks results): −2.10
- DAS28(CRP) mean CFB (LOCF) (2 × 50 mg b.i.d., week 12, 24 weeks results): −2.10
- DAS28(CRP) mean CFB (LOCF) (2 × 50 mg b.i.d., week 16, 24 weeks results): −2.37
- DAS28(CRP) mean CFB (LOCF) (2 × 50 mg b.i.d., week 20, 24 weeks results): −2.40
- DAS28(CRP) mean CFB (LOCF) (2 × 50 mg b.i.d., week 24, 24 weeks results): −2.40
- % patients reaching low disease activity and/or remission at week 12 (LOCF) [3]: 29%
- % patients reaching low disease activity at week 12 (LOCF) [3]: 11%
- % patients reaching remission at week 12 (LOCF) [3]: 18%
- % patients reaching low disease activity and/or remission at week 24 (LOCF) [4]: 38%
- % patients reaching low disease activity at week 24 (LOCF) [4]: 14%
- % patients reaching remission at week 24 (LOCF) [4]: 24%
- DAS28(CRP) mean CFB (LOCF) (2 × 50 mg b.i.d., Week 1, 12 weeks results): −0.84
- DAS28(CRP) mean CFB (LOCF) (2 × 50 mg b.i.d., Week 1, 24 weeks results): −0.84
- DAS28(CRP) mean CFB (LOCF) (2 × 100 mg b.i.d., week 2, 12 weeks results): −1.84
- DAS28(CRP) mean CFB (LOCF) (2 × 100 mg b.i.d., week 2, 24 weeks results): −1.84
- DAS28(CRP) mean CFB (LOCF) (2 × 100 mg b.i.d., week 4, 12 weeks results): −2.28
- DAS28(CRP) mean CFB (LOCF) (2 × 100 mg b.i.d., week 4, 24 weeks results): −2.24
- DAS28(CRP) mean CFB (LOCF) (2 × 100 mg b.i.d., week 8, 12 weeks results): −2.72
- DAS28(CRP) mean CFB (LOCF) (2 × 100 mg b.i.d., week 8, 24 weeks results): −2.72
- DAS28(CRP) mean CFB (LOCF) (2 × 100 mg b.i.d., week 12, 12 weeks results): −2.84
- DAS28(CRP) mean CFB (LOCF) (2 × 100 mg b.i.d., week 12, 24 weeks results): −2.84
- DAS28(CRP) mean CFB (LOCF) (2 × 100 mg b.i.d., week 16, 24 weeks results): −3.06
- DAS28(CRP) mean CFB (LOCF) (2 × 100 mg b.i.d., week 20, 24 weeks results): −3.02
- DAS28(CRP) mean CFB (LOCF) (2 × 100 mg b.i.d., week 24, 24 weeks results): −3.23
- % patients reaching low disease activity and/or remission at week 12 (LOCF) [5]: 50%
- % patients reaching low disease activity at week 12 (LOCF) [5]: 14%
- % patients reaching remission at week 12 (LOCF) [5]: 36%
- % patients reaching low disease activity and/or remission at week 24 (LOCF) [6]: 64%
- % patients reaching low disease activity at week 24 (LOCF) [6]: 24%
- % patients reaching remission at week 24 (LOCF) [6]: 40%
- DAS28(CRP) mean CFB (LOCF) (2 × 100 mg b.i.d., Week 1, 12 weeks results): −1.33
- DAS28(CRP) mean CFB (LOCF) (2 × 100 mg b.i.d., Week 1, 24 weeks results): −1.33
